Where two headings read alike, the source gives them in different places.
Tests used:
tubulin = experiment: Competition for fluorescent bodipy-paclitaxel binding to tubulin; set-up: species or system bovine; details: 30 min pre-incubation; Tau 15 μM or unlabelled paclitaxel 20 μM; fluorescent paclitaxel 5 μM
Procedure: (§1) Tubulin polymerization assays. Bovine brain tubulin (2 mg/ml) polymerization assays were performed in 100-μl volumes at 37° C. using the Tubulin Polymerization Assay Kit (Cytoskeleton, Inc., Denver, Colo.) and following the manufacturer recommendations. Purified Tau protein was purchased from Cytoskeleton (ref #TA01). Fluorescent Bodipy-paclitaxel was purchased from Molecular probes (Bodipy 564/570, Molecular probes, Eugene, Oreg.). OD340 was measured every 30 seconds for 30-60 min. The plots show the change in turbidity after correcting the data for the baseline absorbance.
To examine if paclitaxel binding to tubulin is affected by Tau expression, the inventors used fluorescent bodipy-paclitaxel. When fluorescent paclitaxel binds to microtubules it results in enhanced fluorescence. The inventors used this characteristic to assess the competition between Tau and paclitaxel in vitro. Fluorescent paclitaxel (5 μM) was added to a tubulin solution after 30 minutes pre-incubation with Tau (15 μM) or regular (non-fluorescent) paclitaxel (20 μM), or reaction buffer alone and fluorescence was measured 30 minutes later. […] In the control wells, the addition of fluorescent paclitaxel induced polymerization and after 30 minutes, fluorescence emission was high.

[1] = test system: ZR75.1 breast cancer cells; experiment: ATP cell viability assay (CellTiter-Glo) after siRNA transfection; format: cell-based, human; details: 48 h drug exposure; for IC50: Homo sapiens, ZR-75-1, 48 h, read-out: IC50 concentration of paclitaxel; for Effect of Tau down-regulation on sensitivity to the drug: ZR75.1 cells, Tau siRNA
Excerpt: Small interfering RNA studies. Two siRNA oligonucleotides directed against microtubule associated protein Tau (genbank accession number NM_016835.1) were ordered from Qiagen. Breast cancer cell lines were screened for Tau protein expression by Western blot analysis using a monoclonal anti-Tau antibody (#13-1400: clone T14, Zymed, CA). ZR75.1 cells were selected for siRNA studies and were transfected with a control siRNA (directed against lamin) or 2 distinct anti-Tau siRNA (5′-[…]-3′ (SEQ ID NO:194) and 5′-[…]-3′) (SEQ ID NO:195) constructs. Five hundred nanograms of siRNA was transfected using 1.5 μl RNAiFect (Qiagen) onto 1-3×10^4 cells in 96-well plates or 5 μg of siRNA was transfected using 15 μl RNAiFect (Qiagen) onto 1.5-4×10^5 cells in 6-well plates following the manufactures instructions.
In vitro apoptosis and cell growth assays. Twenty-four hours after siRNA transfection, the medium was changed and cells were treated with various concentrations of paclitaxel and epirubicin. Proliferation rates were determined with CellTiter-Glo® Luminescent Cell Viability Assay, (Promega) after 48 hours of drug exposure according to the manufacturer's instructions. Chemosensitivity was determined from three separate experiments. Growth curves were generated with GraphPad Prism 4.01 (GraphPad Software, San Diego, Calif.). The effect of Tau expression on drug uptake was assayed using a fluorescent-conjugated paclitaxel (Oregon Green 488 paclitaxel, Molecular probes, Eugene, Oreg.) or spontaneously fluorescent epirubicin (Kimichi-Sarfaty et al., 2002; Harris et al., 2003). Forty-eight hours after siRNA transfection, 3×10^5 cells were trypsinized and resuspended in 1 ml of regular medium containing 1 μM of fluorescent paclitaxel or 16 μM of epirubicin and incubated at 37° C. for 20 to 80 min. The pellet was resuspended in 400 μl of phosphate-buffered saline before FACS analysis (Kimichi-Sarfaty et al., 2002) using CellQuest software (BD Biosciences, San Jose, Calif.). Data were recorded by the FACScan as arbitrary units. The amount of fluorescence per cell (arbitrary fluorescence units) was taken as the measure of drug uptake. […] Fluorescence paclitaxel uptake was also observed using an inverted fluorescent microscope.
Down regulation of Tau expression in breast cancer cells increases sensitivity to paclitaxel in vitro. […] The inventors assessed Tau protein expression in breast cancer cell lines with Western blot using an anti-Tau monoclonal antibody that recognizes Tau irrespectively of phosphorylation status. […] Twenty-four hours after siRNA transfection, cells were exposed to various concentrations of paclitaxel or epirubicin and cell viability was assessed after 48 h of drug exposure using an ATP cell viability assay. […]

Bovine brain tubulin = experiment: Tubulin polymerization assay (OD340); format: biochemical; details: tubulin 20 μM, 37° C.; 20 μM paclitaxel or 15 μM Tau
Procedure: as §1
Microtubules are formed in vitro by non-covalent polymerization of tubulin dimers (Desai et al., 1997; Hong et al., 1998). Microtubule associated proteins, GTP and paclitaxel increase microtubule polymerization rates which can be measured by observing an increase in absorbance at 340 nm (Lu and Wood, 1993; Rao et al., 1999). The inventors hypothesized that Tau may reduce pharmacological tubulin polymerization induced by paclitaxel. The inventors performed a kinetic spectrophotometric tubulin polymerization assay in which Tau and paclitaxel were added together to the tubulin mixture. […] Next, tubulin was pre-incubated with Tau before adding paclitaxel which approximates a more physiological sequence of drug exposure. […]

ZR75.1 cells = experiment: Fluorescent drug uptake by FACS in siRNA-transfected cells; format: cell-based, human; details: 16 μM epirubicin, versus lamin knocked-down cells
Procedure: In vitro apoptosis and cell growth assays. Twenty-four hours after siRNA transfection, the medium was changed and cells were treated with various concentrations of paclitaxel and epirubicin. Proliferation rates were determined with CellTiter-Glo® Luminescent Cell Viability Assay, (Promega) after 48 hours of drug exposure according to the manufacturer's instructions. Chemosensitivity was determined from three separate experiments. Growth curves were generated with GraphPad Prism 4.01 (GraphPad Software, San Diego, Calif.). […] Data were recorded by the FACScan as arbitrary units. The amount of fluorescence per cell (arbitrary fluorescence units) was taken as the measure of drug uptake. […] Fluorescence paclitaxel uptake was also observed using an inverted fluorescent microscope.
Tau protein reduces paclitaxel binding to tubulin and interferes with the paclitaxel induced stabilization in vitro. […] To estimate paclitaxel binding to tubulin in the presence or absence of Tau protein, the uptake of fluorescent paclitaxel in Tau siRNA-treated (Tau knock down) cells and lamin siRNA-treated control cells were measured. Forty-four hours after siRNA transfection, cells were exposed to 1 μM Oregon green-paclitaxel for 20 to 80 min and then analyzed by FACS. The amount of fluorescent paclitaxel in the cells can be assessed by plotting fluorescence intensity in the X-axis and cell count on the Y-axis. […]

Row | Structure (SMILES) | Competition with fluorescent paclitaxel for binding to microtubules (tubulin) | IC50 ([1]; ZR75.1 cells with Tau siRNA knock down) | IC50 ([1]; ZR75.1 control cells (lamin siRNA or no siRNA)) | Effect of Tau down-regulation on sensitivity to the drug [1] | Tubulin polymerization (Bovine brain tubulin) | Fluorescence uptake in Tau knocked-down cells (ZR75.1 cells)
1 | CC(=O)O[C@H]1C(=O)[C@@]2(C)[C@H]([C@H](OC(=O)c3ccccc3)[C@]3(O)C[C@H](OC(=O)[C@H](O)[C@@H](NC(=O)c4ccccc4)c4ccccc4)C(C)=C1C3(C)C)[C@]1(OC(C)=O)CO[C@@H]1C[C@@H]2O [paclitaxel] | very high | 100 nM | > 10000 nM | significantly increased the sensitivity | induced tubulin polymerization | –
2 | COc1cccc2c1C(=O)c1c(O)c3c(c(O)c1C2=O)C[C@@](O)(C(=O)CO)C[C@@H]3O[C@H]1C[C@H](N)[C@@H](O)[C@H](C)O1 [epirubicin] | – | – | – | did not result in increased sensitivity | – | slightly decreased
